Common to all, as to assay type: biochemical
Experiment [1] deals with T1, 320 wild-type protein kinases (Homo sapiens, UniProt P30530).
T1 sequence (P30530 26-894): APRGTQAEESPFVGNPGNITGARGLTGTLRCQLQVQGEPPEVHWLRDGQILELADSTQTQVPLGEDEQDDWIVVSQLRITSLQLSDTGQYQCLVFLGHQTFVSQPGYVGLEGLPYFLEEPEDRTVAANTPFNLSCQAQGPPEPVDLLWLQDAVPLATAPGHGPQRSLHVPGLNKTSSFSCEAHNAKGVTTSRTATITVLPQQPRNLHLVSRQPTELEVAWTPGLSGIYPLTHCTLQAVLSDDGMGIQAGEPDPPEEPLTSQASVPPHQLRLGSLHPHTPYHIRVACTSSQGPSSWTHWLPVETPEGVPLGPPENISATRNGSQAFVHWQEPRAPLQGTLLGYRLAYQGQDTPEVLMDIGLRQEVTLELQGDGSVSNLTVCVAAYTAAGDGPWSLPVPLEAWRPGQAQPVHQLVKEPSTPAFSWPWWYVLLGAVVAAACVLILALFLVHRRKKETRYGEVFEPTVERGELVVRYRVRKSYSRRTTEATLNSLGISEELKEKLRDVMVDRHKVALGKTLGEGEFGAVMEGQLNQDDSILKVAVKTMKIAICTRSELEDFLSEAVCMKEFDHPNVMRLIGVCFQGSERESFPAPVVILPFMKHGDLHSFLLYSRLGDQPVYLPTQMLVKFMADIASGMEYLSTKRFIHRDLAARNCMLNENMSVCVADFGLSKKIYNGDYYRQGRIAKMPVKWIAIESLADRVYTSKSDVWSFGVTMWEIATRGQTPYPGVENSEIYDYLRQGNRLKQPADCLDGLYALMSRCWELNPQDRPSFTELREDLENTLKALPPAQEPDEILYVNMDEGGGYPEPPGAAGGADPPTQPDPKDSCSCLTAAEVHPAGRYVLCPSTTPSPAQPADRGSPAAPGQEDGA
The settings on record: AXL, singlicate. From the text:
(§1) Table S4. Profiling of two compounds at two concentrations against 320 wild-type protein kinases; singlicate measurement; Residual activities (% of control).

Experiment [2] deals with 320 wild-type protein kinases (Homo sapiens, UniProt P10721). Conditions: KIT, singlicate.
From the text: as §1

The target in experiment [3] is 320 wild-type protein kinases (Homo sapiens, UniProt P16591). The settings on record: FER, singlicate.
From the text: as §1

Experiment [4] deals with 320 wild-type protein kinases (Homo sapiens, UniProt O96017). Conditions: singlicate.
From the text: as §1

For experiment [5], the target named is T2, 320 wild-type protein kinases (Homo sapiens, UniProt O15146).
T2 sequence (O15146 24-869): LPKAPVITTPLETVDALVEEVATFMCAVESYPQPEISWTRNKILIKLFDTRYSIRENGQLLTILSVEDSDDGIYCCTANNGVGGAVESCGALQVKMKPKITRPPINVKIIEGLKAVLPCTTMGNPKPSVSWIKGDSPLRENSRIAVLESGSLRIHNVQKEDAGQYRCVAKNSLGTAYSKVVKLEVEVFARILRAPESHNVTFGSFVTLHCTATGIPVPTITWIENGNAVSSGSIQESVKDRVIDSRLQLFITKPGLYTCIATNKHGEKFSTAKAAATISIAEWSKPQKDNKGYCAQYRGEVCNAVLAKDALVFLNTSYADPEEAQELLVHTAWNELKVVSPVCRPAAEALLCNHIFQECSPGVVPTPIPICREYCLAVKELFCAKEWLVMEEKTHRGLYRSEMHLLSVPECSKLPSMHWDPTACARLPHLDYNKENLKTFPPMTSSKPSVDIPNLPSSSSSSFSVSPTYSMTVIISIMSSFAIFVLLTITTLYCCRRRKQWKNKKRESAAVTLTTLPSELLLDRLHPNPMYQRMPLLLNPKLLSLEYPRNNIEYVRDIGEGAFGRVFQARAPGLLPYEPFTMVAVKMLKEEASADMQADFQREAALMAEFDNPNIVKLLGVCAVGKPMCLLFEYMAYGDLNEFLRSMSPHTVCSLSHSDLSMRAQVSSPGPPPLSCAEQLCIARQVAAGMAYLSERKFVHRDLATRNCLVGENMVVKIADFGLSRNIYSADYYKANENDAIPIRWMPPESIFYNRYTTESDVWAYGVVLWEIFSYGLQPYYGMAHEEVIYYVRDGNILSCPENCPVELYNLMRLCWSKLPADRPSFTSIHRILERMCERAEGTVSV
The settings on record: MUSK, singlicate.
From the text: as §1

Read-outs that look alike come from different tables or passages of the source.

320 wild-type protein kinases (Homo sapiens, UniProt O96017), sequence (O96017 whole entry): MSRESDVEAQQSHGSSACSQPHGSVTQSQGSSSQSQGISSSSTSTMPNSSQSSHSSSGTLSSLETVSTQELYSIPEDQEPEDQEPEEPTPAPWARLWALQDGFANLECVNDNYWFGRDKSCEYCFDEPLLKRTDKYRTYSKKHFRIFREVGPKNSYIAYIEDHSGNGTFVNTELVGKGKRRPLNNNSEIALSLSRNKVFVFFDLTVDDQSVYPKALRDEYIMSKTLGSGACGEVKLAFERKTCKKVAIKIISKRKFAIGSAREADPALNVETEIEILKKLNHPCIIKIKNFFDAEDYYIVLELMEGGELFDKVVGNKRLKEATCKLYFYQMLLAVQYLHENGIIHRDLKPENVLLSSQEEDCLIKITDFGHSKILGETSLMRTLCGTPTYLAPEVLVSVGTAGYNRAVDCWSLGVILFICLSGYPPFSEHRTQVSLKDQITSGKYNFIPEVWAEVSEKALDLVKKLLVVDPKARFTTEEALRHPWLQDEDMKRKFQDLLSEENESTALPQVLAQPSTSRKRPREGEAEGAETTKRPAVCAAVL
320 wild-type protein kinases (Homo sapiens, UniProt P16591), sequence (P16591 whole entry): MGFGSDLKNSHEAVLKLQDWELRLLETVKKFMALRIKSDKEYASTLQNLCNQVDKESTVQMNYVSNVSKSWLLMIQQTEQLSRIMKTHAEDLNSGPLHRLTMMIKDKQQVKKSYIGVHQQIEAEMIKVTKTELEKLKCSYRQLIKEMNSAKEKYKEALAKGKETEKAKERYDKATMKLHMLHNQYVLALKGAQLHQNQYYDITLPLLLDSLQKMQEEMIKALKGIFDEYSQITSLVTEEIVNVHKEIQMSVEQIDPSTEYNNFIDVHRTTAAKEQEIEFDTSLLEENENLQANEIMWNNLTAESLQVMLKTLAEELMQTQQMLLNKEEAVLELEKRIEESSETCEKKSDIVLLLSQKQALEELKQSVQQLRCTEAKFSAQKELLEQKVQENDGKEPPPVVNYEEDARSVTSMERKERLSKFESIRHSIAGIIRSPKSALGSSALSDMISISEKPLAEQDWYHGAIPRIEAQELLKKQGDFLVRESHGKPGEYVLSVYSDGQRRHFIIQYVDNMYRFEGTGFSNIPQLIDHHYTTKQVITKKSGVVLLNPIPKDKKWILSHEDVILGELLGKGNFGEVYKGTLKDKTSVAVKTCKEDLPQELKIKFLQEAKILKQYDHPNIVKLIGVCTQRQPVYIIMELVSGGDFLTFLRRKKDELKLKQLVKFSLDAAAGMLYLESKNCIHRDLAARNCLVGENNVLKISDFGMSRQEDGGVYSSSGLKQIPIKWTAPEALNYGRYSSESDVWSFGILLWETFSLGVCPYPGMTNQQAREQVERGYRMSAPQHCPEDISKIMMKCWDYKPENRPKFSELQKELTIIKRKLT
320 wild-type protein kinases (Homo sapiens, UniProt P10721), sequence (P10721 26-976): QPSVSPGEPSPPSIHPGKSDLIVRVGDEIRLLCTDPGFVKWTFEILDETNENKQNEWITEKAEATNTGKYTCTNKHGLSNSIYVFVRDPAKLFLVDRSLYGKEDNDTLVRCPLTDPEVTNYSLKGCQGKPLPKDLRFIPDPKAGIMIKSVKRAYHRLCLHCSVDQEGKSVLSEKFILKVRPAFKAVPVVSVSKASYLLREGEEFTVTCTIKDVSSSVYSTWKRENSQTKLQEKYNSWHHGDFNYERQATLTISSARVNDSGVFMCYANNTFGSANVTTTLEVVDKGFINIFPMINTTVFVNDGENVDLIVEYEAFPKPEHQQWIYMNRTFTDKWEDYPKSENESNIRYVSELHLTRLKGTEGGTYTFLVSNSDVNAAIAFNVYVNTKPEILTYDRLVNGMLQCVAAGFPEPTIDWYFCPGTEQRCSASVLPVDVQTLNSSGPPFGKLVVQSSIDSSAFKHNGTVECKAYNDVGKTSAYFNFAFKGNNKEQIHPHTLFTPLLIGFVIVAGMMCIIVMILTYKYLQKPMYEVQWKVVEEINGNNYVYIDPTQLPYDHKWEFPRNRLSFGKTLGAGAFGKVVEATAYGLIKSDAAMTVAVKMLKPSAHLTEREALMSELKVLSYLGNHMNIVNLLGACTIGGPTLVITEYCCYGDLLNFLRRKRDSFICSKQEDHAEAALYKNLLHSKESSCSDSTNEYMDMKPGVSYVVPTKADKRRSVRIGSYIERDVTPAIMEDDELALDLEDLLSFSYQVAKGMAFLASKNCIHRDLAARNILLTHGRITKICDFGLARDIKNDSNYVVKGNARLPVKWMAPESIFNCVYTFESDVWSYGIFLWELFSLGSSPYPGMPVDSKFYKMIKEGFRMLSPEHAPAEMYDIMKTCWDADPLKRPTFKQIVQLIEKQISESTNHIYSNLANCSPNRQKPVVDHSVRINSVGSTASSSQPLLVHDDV

In the case of `C#Cc1cc(Nc2ncnc3cc(OC)c(OC)cc23)ccc1Cl` [Compound 45], the Residual activity is 80 % of control in experiment [1] (1.0E-06 M); 103 % of control in experiment [1] (1.0E-07 M); 105 % of control in experiment [2] (1.0E-06 M); 124 % of control in experiment [2] (1.0E-07 M); 93 % of control in experiment [3] (1.0E-06 M); 115 % of control in experiment [3] (1.0E-07 M). The Residual activity in experiment [4] (CHK2, 1.0E-06 M) is reported as 78 % of control; in experiment [4] (CHK2, 1.0E-07 M), 94 % of control; in experiment [5] (1.0E-06 M) it was 87 % of control; in experiment [5] (1.0E-07 M) it was 94 % of control.
Consider `C#Cc1cc(Nc2ncnc3cc(I)ccc23)ccc1Cl` [Compound 41], for which the Residual activity in experiment [1] (1.0E-06 M) is given as 97 % of control; in experiment [1] (1.0E-07 M) it was 116 % of control; in experiment [2] (1.0E-06 M), 121 % of control; in experiment [2] (1.0E-07 M) it was 128 % of control; in experiment [3] (1.0E-06 M), 110 % of control; in experiment [3] (1.0E-07 M), 113 % of control. Further, the Residual activity in experiment [4] (CHK2, 1.0E-06 M) is on record as 83 % of control; in experiment [4] (CHK2, 1.0E-07 M) it was 105 % of control; in experiment [5] (1.0E-06 M) it was 96 % of control; in experiment [5] (1.0E-07 M) it was 94 % of control.

The values are drawn from paper PMC9329436, “Optimization of the 4-anilinoquin(az)oline scaffold as epidermal growth factor receptor (EGFR) inhibitors for chordoma utilizing a toxicology profiling assay platform” (Scientific Reports, 2022).
